# From ChEMBL document CHEMBL1201862, “PubChem BioAssay data set” (2004)
# Calls of active or inactive are those of the source.
# Tests used:
# [1] = viability of uninfected HEp-2 cells – cell-based, HTS, cytotoxicity control for RSV inhibitor project, dose response (AID 2410); assay type: functional; settings: human respiratory syncytial virus
# [2] = viability of PTEN-deleted HCT116 cells – cell-based, HCT116 PTEN knockout, dose response (AID 1047); assay type: functional;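 also: HCT116 colon tumor cells with PTEN knocked out; cells exposed to compound for 60 hours before readout; potency for loss of cell viability measured by luminescence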
# [3] = viability of HCT116 lacking mutant beta-catenin – cell-based, human colon tumor, dose response (AID 1045); assay type: functional;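 also: HCT116 colon tumor cells with beta catenin knocked out; cells exposed to compound for 60 hours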
# cells [4] = assay type: functional, cell-based
# cells [5] = assay type: functional, cell-based; remark: listed apart in the source
# [6] = NIH3T3 cell viability loss – ATP luminescence, mouse fibroblasts, counter-screen, dose response (AID 2010); assay type: functional, cell-based;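 also: cells exposed to compound for about 90 hours before reading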
# [7] = Trypanosoma cruzi growth suppression in host cells – NIH3T3 host cells, beta-gal luminescence, confirmation (AID 2044); assay type: functional, cell-based;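 also: intracellular parasites grown in NIH/3T3 mouse fibroblasts as host cells; luminescent beta-galactosidase reporter signal from transgenic T. cruzi replicating inside host cells; inhibitors lower the luminescence signal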
# Nonstructural protein 1 = Nonstructural protein 1 (Influenza A virus, UniProt Q194T2); assay type: functional, Influenza A virus (A/California/07/2009(H1N1))
# [8] = molecular target: Peroxisome proliferator-activated receptor gamma/Nuclear receptor coactivator 3 (Homo sapiens, UniProt P37231); assay: (§1) TR-FRET dose response biochemical High Throughput Screening assay for agonists of the steroid receptor coactivator 3 (SRC-3) recruitment by the peroxisome proliferator-activated receptor gamma (PPAR gamma): non-selective agonists. [Related pubchem assays: 1301 (Confirmation screen.), 1048 (Primary screen.)]; assay type: functional
# [9] = molecular target: Peroxisome proliferator-activated receptor gamma/Nuclear receptor coactivator 1 (Homo sapiens, UniProt P37231); assay: as §1, with “1 (SRC-1)” for “3 (SRC-3)”, “assays (depositor defined):AID1300, AID1808, AID504735, AID631]” for “assays: 1301 (Confirmation screen.), 1048 (Primary screen.)]”; assay type: protein assay
# [10] = molecular target: Peroxisome proliferator-activated receptor gamma/Nuclear receptor coactivator 2 (Homo sapiens, UniProt P37231); assay: TR-FRET dose response biochemical High Throughput Screening assay for agonists of the steroid receptor coactivator 2 (SRC-2) recruitment by the peroxisome proliferator-activated receptor gamma (PPAR gamma): non-selective agonists. [Related pubchem assays: 1297, 1032 ]; assay type: functional
# [11] = Luminescence Cell-Based Dose Confirmation HTS to Identify Activators of 5'UTR Stem-Loop Driven Alpha-Synuclein mRNA Translation in H4 Neuroglioblastoma Cells. [Related pubchem assays: 1829 (Project Summary), 1814 (Primary HTS)]; assay type: functional
# H4 = assay: Luminescence Cell-Based Dose Response HTS to Identify Activators of 5'UTR Stem-Loop Driven Prion Protein mRNA Translation in H4 Neuroglioblastoma Cells. [Related pubchem assays: 1829 (Project Summary), 1814 (Primary HTS)]; assay type: functional; settings: Homo sapiens
# [12] = Luminescence Cell-Based Dose Response HTS to Identify Activators of Luciferase Translation or Activity in H4 […] Cells. [Related pubchem assays: 1829 (Project Summary), 1814 (Primary HTS)]; assay type: functional
# Protein skinhead-1 = molecular target: T1, Protein skinhead-1 (Caenorhabditis elegans, UniProt P34707); assay type: functional
# T1 sequence (P34707 whole entry): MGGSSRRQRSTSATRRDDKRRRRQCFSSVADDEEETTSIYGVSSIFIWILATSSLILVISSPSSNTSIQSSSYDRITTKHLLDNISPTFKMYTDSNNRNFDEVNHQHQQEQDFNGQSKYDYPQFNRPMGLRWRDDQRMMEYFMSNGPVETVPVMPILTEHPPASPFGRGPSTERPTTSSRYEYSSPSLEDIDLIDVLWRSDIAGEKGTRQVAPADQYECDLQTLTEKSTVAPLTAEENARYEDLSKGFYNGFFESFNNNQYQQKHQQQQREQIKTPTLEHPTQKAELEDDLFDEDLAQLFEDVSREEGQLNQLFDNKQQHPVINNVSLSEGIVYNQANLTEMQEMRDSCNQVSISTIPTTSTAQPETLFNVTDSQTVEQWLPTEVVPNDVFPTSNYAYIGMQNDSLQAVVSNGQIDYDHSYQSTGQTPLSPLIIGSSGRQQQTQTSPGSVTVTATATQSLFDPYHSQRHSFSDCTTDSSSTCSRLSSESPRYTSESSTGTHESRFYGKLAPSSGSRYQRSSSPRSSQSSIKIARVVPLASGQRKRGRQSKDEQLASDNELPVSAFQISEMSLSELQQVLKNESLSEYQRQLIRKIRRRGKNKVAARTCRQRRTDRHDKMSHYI
# [13] = loss of viability in HepG2 cells – cell-based, CellTiter-Glo, cherry-picked, cytotoxicity control for Shn3 inhibitor project, dose response (AID 624134); assay type: functional
# [14] = non-specific 3'UTR reporter inhibition in Clone20-Shn3RL – cell-based, Renilla luciferase, cherry-picked, counter-screen for Shn3 inhibitor project, dose response (AID 624133); assay type: functional
# [15] = reduction of Shn3 3'UTR-driven luciferase in osteoblasts – cell-based, Clone20 osteoblasts, firefly luciferase, cherry-picked, dose response (AID 624132); assay type: functional;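 also: firefly luciferase luminescence from reporter carrying the Shn3 3'UTR in osteoblasts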
# INS1 = assay: INS-1E survival protection against cytokine death – cell-based, luminescence, retest, dose response (AID 449756); assay type: functional; settings: Rattus norvegicus;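 also: cell death triggered by IL-1 beta plus TNF-alpha plus IFN-gamma mixture; protective hits raise ATP signal compared with cytokine alone wells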
# Streptokinase A = molecular target: T2, Streptokinase A (Streptococcus pyogenes serotype M1, UniProt P10520); assay: viability-normalized secreted streptokinase activity reduction – plasminogen activation absorbance, OD405, dose response (AID 1914); assay type: functional, Streptococcus pyogenes M1 GAS;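 also: secreted streptokinase activity via plasminogen activation per viability signal from cell pellet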
# T2 sequence (P10520 whole entry): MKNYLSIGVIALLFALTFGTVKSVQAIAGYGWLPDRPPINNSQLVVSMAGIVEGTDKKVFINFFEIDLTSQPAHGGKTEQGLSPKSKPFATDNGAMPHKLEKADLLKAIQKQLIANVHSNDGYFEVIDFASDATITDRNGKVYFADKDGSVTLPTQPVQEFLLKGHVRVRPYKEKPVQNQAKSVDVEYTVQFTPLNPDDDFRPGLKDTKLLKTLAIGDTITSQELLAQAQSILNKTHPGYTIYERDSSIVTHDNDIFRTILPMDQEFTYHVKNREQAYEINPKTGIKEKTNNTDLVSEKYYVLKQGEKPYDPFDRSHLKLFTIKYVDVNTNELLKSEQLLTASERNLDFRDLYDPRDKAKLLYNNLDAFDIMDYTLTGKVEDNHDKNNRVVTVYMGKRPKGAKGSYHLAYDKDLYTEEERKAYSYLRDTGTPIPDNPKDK
# [16] = tested on: Streptococcus sp. 'group A'; assay: Streptococcus pyogenes SK(-)GAS viability under kanamycin – luminescence, BacTiterGlo, confirmation, counter-screen for streptokinase expression inhibitor project, dose response (AID 1900); assay type: functional, organism-based
# Streptococcus = assay: GAS UMAA2166 growth inhibition – luminescence, BacTiterGlo, counter-screen for streptokinase expression inhibitor project, dose response (AID 1915); assay type: functional, organism-based;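 also: potency for reduction of bacterial viability or growth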
# [17] = molecular target: FAD-linked sulfhydryl oxidase ALR (Homo sapiens, UniProt P55789); assay: ALR-catalysed DTT oxidation blockers – biochemical, H2O2 detection, luminescence, cherry-pick, dose response (AID 493248)
smiles,measurement,setting,value
COc1ccccc1C(=O)Nc1ccc(S(=O)(=O)N2CCc3ccccc32)cc1,CC50,[1],48.7 µM (active)
COc1ccccc1N1CCN(c2cc(=O)n(Cc3ccc(F)cc3)c(=O)[nH]2)CC1,EC50,[2],10.5 µM (active)
same,EC50,[3],10.1 µM (active)
CC(C(=O)Nc1ccccc1-c1ccccc1)N(C)Cc1nc(O)c2ccccc2n1 (configuration not stated),EC50,cells [4],> 350 µM (not active)
same,EC50,cells [5],> 350 µM (not active)
CCc1ccc(Nc2c([N+](=O)[O-])nn(-c3ccccc3)[n+]2[O-])cc1,EC50,[6],> 60 µM (not active)
same,EC50,[7],0.461 µM (active)
same,IC50,Nonstructural protein 1,81.8 µM (active)
CSc1nc(Sc2ccccc2Cl)c2ccccc2n1,EC50,[8],> 79.4 µM (not active)
same,EC50,[9],> 79.4 µM (inactive)
same,EC50,[10],> 79.4 µM (not active)
CC(C)c1ccc(NC(=O)[C@@H]2CCC(=O)N2C2OC(=O)c3ccccc32)cc1 (some centres not stated),EC50,[11],0.143 µM (active)
same,EC50,H4,38.2 µM (active)
same,EC50,[12],24.5 µM (active)
COCCn1c(C)cc(C(=O)CN2C(=O)NC3(CCCCCCC3)C2=O)c1C,EC50,[11],0.94 µM (active)
same,EC50,H4,8.28 µM (active)
same,EC50,[12],0.283 µM (active)
Cc1ccc(CNC(=O)CSc2c3c(nc4cc(Cl)ccc24)CCCC3)o1,EC50,[8],> 79.4 µM (not active)
same,EC50,[9],> 79.4 µM (inactive)
same,EC50,[10],> 79.4 µM (not active)
Cc1cccc(/C=C/C(=O)c2ccc(NC3=NCCCS3)cc2)c1,EC50,[6],> 60 µM (not active)
same,EC50,[11],23.3 µM (active)
same,EC50,[7],2.23 µM (active)
same,EC50,H4,> 120 µM (not active)
same,IC50,Protein skinhead-1,19.9 µM (active)
same,EC50,[12],9.88 µM (active)
CCCOc1ccc(/C=N/Nc2ccccc2[N+](=O)[O-])c(OCCC)c1,IC50,Nonstructural protein 1,7.73 µM (active)
CCn1c(=O)cc(SCC(=O)N(C)Cc2ccccc2)c2ccccc21,EC50,[8],> 79.4 µM (not active)
same,EC50,[9],> 79.4 µM (inactive)
same,EC50,[10],> 79.4 µM (not active)
COc1ccc(OC)c(-c2csc(NC(=O)Cc3ccccc3OC)n2)c1,CC50,[1],25.3 µM (active)
COc1ccc(N=Nc2cnc(C)nc2-c2ccccc2)cc1,IC50,Nonstructural protein 1,43.8 µM (active)
CC(=O)c1cccc(NS(=O)(=O)c2ccc(-c3cc(C)no3)s2)c1,EC50,cells [4],> 350 µM (not active)
same,EC50,cells [5],> 350 µM (not active)
C/C(=N\OC(=O)c1ccc(F)cc1)c1sc(-c2ccccc2)nc1C,CC50,[1],> 50 µM (active)
CN1CCN(C(=O)CSc2cc(=O)n(C)c3ccccc23)CC1,EC50,[8],> 79.4 µM (not active)
same,EC50,[9],> 79.4 µM (inactive)
same,EC50,[10],> 79.4 µM (not active)
FC(F)Oc1ccc(C2NC(c3ccccc3)=NO2)cc1 (configuration not stated),EC50,[11],0.115 µM (active)
same,IC50,Protein skinhead-1,80.6 µM (inactive)
CCOC(=O)c1sc(-c2ccc(OC)cc2)cc1NC(C)=O,EC50,[8],> 79.4 µM (not active)
same,EC50,[9],> 79.4 µM (inactive)
same,EC50,[10],22 µM (not active)
O=C(Nc1ccc2c(c1)nc1n2CCN(Cc2ccccc2)C1)c1cccs1,EC50,[11],17.2 µM (active)
same,EC50,H4,> 120 µM (not active)
same,EC50,[12],13.6 µM (active)
CCOC(=O)c1sc(NC(=O)CN2CC(C)OC(C)C2)nc1C (configuration not stated),IC50,Protein skinhead-1,> 100 µM (inactive)
C#Cc1ccc2c(c1)COc1c3ccccc3nn1-2,IC50,Protein skinhead-1,> 100 µM (inactive)
OCCCn1c(C2CCCN2c2nc(-c3ccc(F)cc3)cs2)nc2cc(C(F)(F)F)ccc21 (configuration not stated),CC50,[1],16.8 µM (active)
COc1cccc2[nH]c3c(N4CCc5ccccc5C4)ncnc3c12,CC50,[1],> 50 µM (active)
O=C(O)CN(CC(=O)O)CC(=O)O [NITRILOTRIACETIC ACID],IC50,Nonstructural protein 1,17.7 µM (active)
Oc1cc(Nc2cccnc2)cc2cccnc12,AC50,[13],38.8 µM (active)
same,AC50,[14],4.72 µM (active)
same,IC50,Nonstructural protein 1,8.89 µM (active)
same,AC50,[15],2.12 µM (active)
COc1ccc(-c2csc(NCCc3nc4cc(Cl)c(Cl)cc4n3CCCO)n2)cc1,CC50,[1],19.6 µM (active)
COc1ccccc1C(=O)Nc1nnc(CCc2ccccc2)s1,EC50,[11],> 120 µM (not active)
same,EC50,H4,> 120 µM (not active)
same,EC50,[12],8.71 µM (active)
Cc1ccc2sc(NC(=O)c3cccc(N4C(=O)CCC4=O)c3)nc2c1C,IC50,Protein skinhead-1,> 100 µM (inactive)
CCS(=O)(=O)c1ccc(-c2cccc(NC(=O)COc3ccccc3)c2)nn1,EC50,cells [4],> 350 µM (not active)
same,EC50,cells [5],> 350 µM (not active)
Cc1ccc2[nH]c(SCC(=O)c3ccc(O)cc3O)nc2c1,EC50,[11],9.48 µM (active)
same,EC50,H4,52.9 µM (active)
same,EC50,[12],16.5 µM (active)
O=S(=O)(c1ccccc1)N1CCC(c2nc(O)c3nnn(Cc4cccc(Cl)c4)c3n2)CC1,CC50,[1],22.3 µM (active)
Clc1ccc(CSc2ccc(-c3ccccn3)nn2)cc1,EC50,[6],> 30 µM (not active)
same,EC50,[7],1.84 µM (active)
same,AC50,INS1,5.06 µM (active)
same,EC50,cells [4],43.7 µM (active)
same,EC50,cells [5],12.5 µM (active)
CC(OC(=O)c1ncc(Cl)c(Cl)c1Cl)C(=O)NC1(C#N)CCCCC1 (configuration not stated),EC50,cells [4],> 350 µM (not active)
same,EC50,cells [5],> 350 µM (not active)
Cc1ccc(-c2nn(-c3ccccc3)cc2/C=N/NC(=O)CSc2nnc(C)n2-c2ccccc2)cc1,EC50,Streptokinase A,65.8 µM (active)
same,EC50,[11],13.4 µM (active)
same,EC50,H4,16.6 µM (active)
same,EC50,[16],7.47 µM (active)
same,EC50,[12],63.4 µM (active)
same,EC50,Streptococcus,33.5 µM (active)
Cc1c(-c2csc(N)n2)c2ccccc2n1C,IC50,Protein skinhead-1,> 100 µM (inactive)
CCOCCn1c(COc2ccccc2)nc2ccccc21,IC50,Protein skinhead-1,> 100 µM (inactive)
Cc1ccc(C)c(CNS(=O)(=O)c2ccc3c(c2)C(C)(C)C(=O)N3C)c1,EC50,cells [4],> 350 µM (not active)
same,EC50,cells [5],> 350 µM (not active)
Cc1cc(C)c2c(-n3cccc3)c(C(=O)NNS(=O)(=O)c3ccc(Br)cc3)sc2n1,CC50,[1],19 µM (active)
same,AC50,[17],74.4 µM (active)
CSc1sc(C(=O)N2CCCCC2)c(-c2cccs2)c1C#N,EC50,cells [4],> 350 µM (not active)
same,EC50,cells [5],> 350 µM (not active)
